pEC50, pIC50: −log10 of the molar value. The source made the active and inactive calls.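 How the source made its calls: active means compounds giving half or more protection of infected cells from virus-caused growth loss, again on retest; inactive means the rest.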
Test system: CEM cells HIV-1 protection, formazan growth assay
Experiment: NCI AIDS Antiviral Assay
Details: for pIC50: measured here: growth of uninfected CEM cells
Experimental: The ability of compounds to protect human CEM cells from HIV-1 infection is measured as a screen for new compounds capable of inhibiting the HIV virus. Five concentrations of drug were tested on uninfected and infected cells and cell growth was measured using a soluble formazan assay. […] Compounds that provided at least 50% protection were retested. Compounds that provided at least 50% protection on retest were listed as moderately active. Compounds that reproducibly provided 100% protection were listed as confirmed active. […] Note that the inability to provide protection could be due to toxicity.

Row | Structure (SMILES) | pEC50 | pIC50 | outcome
1 | COC12[C@@H]3N[C@@H]3CN1C1=C(C(=O)C(NCCSSCCNC3=C(C)C(=O)C4=C(C3=O)C(COC(N)=O)[C@]3(OC)C5N[C@@H]5CN43)=C(C)C1=O)[C@@H]2COC(N)=O (stereo not given in full) | < 3.70 | 7.20 | –
2 | S=C1NCCNC(=S)SS1 | < 4.46 | < 4.46 | –
3 | O=C(CCN1CCCCC1CO)Nc1ccc2c(c1)C(=O)c1ccc(NC(=O)CCN3CCCCC3CO)cc1C2=O (stereo not given) | < 3.70 | 5.50 | –
4 | CCOC(=O)C(C)(c1cn(C)c2ccccc12)c1cn(C)c2ccccc12 | – | – | inactive
5 | CCC[CH2][Sn]([CH2]CCC)([O]C(=O)/C=C/c1ccccc1F)[O]C(=O)/C=C/c1ccccc1F | < 5.03 | < 5.03 | –
6 | CC(=O)NC1C(O)OC(CO)C(O)C1OC(C)C(=O)N[C@@H](CC(N)=O)C(=O)N[C@H](CCC(=O)O)C(N)=O (stereo not given in full) | < 3.33 | 3.66 | –
7 | CN(C)c1ccc(/C=C/C=C\C2=CC(=C\C=C/C=C3C=CC(=[N+](C)C)C=C3)/Sc3ccccc32)cc1 | < 5.75 | < 5.75 | –
8 | COc1ccc(Cc2nc3ccccc3[nH]2)cc1OC | < 3.70 | 4.05 | –
9 | COCOc1ccc(C(=O)C(C)c2ccc(OCOC)cc2OCOC)c(O)c1 (stereo not given) | < 3.70 | 4.59 | –
10 | CC(=O)C1CC[C@@H](C)[C@@H]2CC[C@@]3(C)OO[C@@]12[C@H](OC=O)O3 (stereo not given in full) | < 3.70 | 4.56 | –
11 | CC#N.CC#N.COC(=O)[C@@H]1COC(=O)[N-]1.COC(=O)[C@@H]1COC(=O)[N-]1.COC(=O)[C@@H]1COC(=O)[N-]1.COC(=O)[C@@H]1COC(=O)[N-]1.[Rh+2].[Rh+2] | < 3.70 | < 3.70 | –
12 | CC(C)C(/C=C/c1ccc(Cl)cc1)=N\NC(=S)NN | < 3.70 | 4.92 | –
13 | CC(C)[C@H]1CO[C@]2(C)[C@@H]3CN(Cc4ccccc4)C[C@@H]3C(=O)N12 | < 3.67 | < 3.67 | –
14 | O=C1Nc2cc([N+](=O)[O-])ccc2NC1/C(=N\Nc1ccccc1)C(O)c1cccc([N+](=O)[O-])c1 (stereo not given) | < 3.38 | 4.32 | –
15 | CCC[CH2][Sn]1([CH2]CCC)[O]CC(c2ccccn2)C[O]1 | < 4.31 | 4.97 | –
16 | CCC(C=O)P1(=O)OC(C)(C)CN1C(C)(C)C (stereo not given) | < 3.70 | 4.19 | –
17 | CN(C)C(=O)c1ccc(N=Nc2c(O)c3ccccc3[nH]c2=O)cc1 | < 3.70 | 4.44 | –
18 | COc1cc(/C=C/C(=N\NC(=S)NN)c2sc(NNC(C)=O)nc2C)ccc1O | < 4.92 | < 4.92 | –
19 | C/C(O)=C(\C=N/C(=S)Nc1ccccc1)C(=O)Nc1ccccc1 | < 3.70 | < 3.70 | –
20 | CC(C)=CCc1c(-c2ccc(OC3OC(CO)C(O)C(O)C3O)cc2O)oc2c3c(cc(O)c2c1=O)OC(C)(C)C=C3 (stereo not given) | < 4.94 | < 4.94 | –
21 | COc1cccc2sc(-n3c(C)nc4ccccc4c3=O)nc12 | < 3.70 | < 3.70 | –

Row | Structure (SMILES) | pEC50 | pIC50 | outcome
22 | Clc1cccc(NC(c2ccccc2)=[N+]2CCCCC2)c1 | < 3.70 | 4.51 | –
23 | CCCCCCCCCCCCSCC12c3ccccc3C(c3ccccc31)C(C(=O)O)C2C(=O)O (stereo not given) | < 3.70 | 4.65 | –
24 | CC(C)(CN1CCCCC1)C(=O)CC(SCCN)c1ccc(Cl)cc1 (stereo not given) | < 3.63 | 4.90 | –
25 | CSc1nc(NC2OC(COC(C)=O)C(OC(C)=O)C(OC(C)=O)C2OC(C)=O)c(-c2csc(N)n2)c(=O)n1C (stereo not given) | – | – | inactive
26 | COC(=O)CCC(=O)CC(=O)C1=NS(=O)(=O)c2nc(S(N)(=O)=O)c(Cl)cc2N1 | 6.42 | 3.26 | –
27 | CCN(Cc1cccc(S(=O)(=O)O)c1)c1ccc(C(=C2C=CC(=[N+](CC)Cc3cccc(S(=O)(=O)O)c3)C=C2)c2ccc(S(=O)(=O)O)cc2)cc1 | < 3.95 | 4.10 | –
28 | O=C(N/C(=C\c1ccc([N+](=O)[O-])cc1)c1nc2ccc(Cl)cc2[nH]1)c1ccccc1 | – | – | inactive
29 | O=c1cn[nH]c2cccc(Cl)c12 | < 3.93 | < 3.93 | –
30 | COc1ccc(C(=O)O)c2c(=O)c3cccnc3[nH]c12 | – | – | inactive
31 | COc1cc2c(ccc3c4cc(OC)c(OC)cc4c[n+](C)c23)cc1O | < 3.49 | 5.83 | –
32 | O=C1c2ccccc2C(=O)C2(C(c3ccccc3)c3ccccc3)N=NCC12 (stereo not given) | < 3.70 | 3.98 | –
33 | COc1cc2c(cc1O)C(CSC)Cc1cc(OC)c(OC)cc1N(C)CCC2 (stereo not given) | < 3.70 | 4.41 | –
34 | C=CCc1cc(CN2CCN(C)CC2)c(O)c(OC)c1 | < 3.70 | < 3.70 | –
35 | CC(C)(C)c1cc(C(C)(C)C)c(N=O)c(C(C)(C)C)c1 | < 3.70 | < 3.70 | –
36 | CC(C)N1C(=O)NC2C1NC(=O)N2C(C)C (stereo not given) (tested in a mixture with another compound) | < 3.70 | < 3.70 | –
37 | CN1CCOC(c2ccccc2)O1 (stereo not given) | < 3.60 | < 3.60 | –
38 | S=c1nc2sc3c(c2c(Nc2ccc(Cl)cc2)[nH]1)CCCC3 | 4.36 | 3.88 | –
39 | Cc1c2n(c3ccccc13)CC1C2N(C)OC1(C)C (stereo not given) | < 3.58 | < 3.58 | –
40 | O=[N+]([O-])c1cccc(-c2csc(N=Nc3c(O)[nH]c4ccccc34)n2)c1 | < 3.70 | < 3.70 | –
41 | NC(=O)c1ccccc1NC(=O)C(=O)C(C(=O)c1ccc(Cl)c(Cl)c1)C1OC(=O)c2ccccc21 (stereo not given) | < 3.47 | 4.67 | –
42 | NNc1cn[nH]c(=O)c1Cl | < 3.70 | < 3.70 | –

Row | Structure (SMILES) | pEC50 | pIC50 | outcome
43 | Fc1c(F)c(F)c(CSc2nc3ccccc3[nH]2)c(F)c1F | < 3.70 | 3.84 | –
44 | Cc1cc(Cl)n2nc(-c3ccc(Cl)cc3)nc2n1 | < 4.31 | < 4.31 | –
45 | O=C1C=CC2C3C(=O)N(c4ccccc4)C(=O)C3C1N2Cc1ccccc1 (stereo not given) | < 5.93 | < 5.93 | –
46 | CC(C)(C)OC(=O)Cn1ncn(NC(=O)Cc2ccccc2)c1=S | < 3.70 | < 3.70 | –
47 | CCCCN=C(N)N=C(N)N | < 3.70 | 4.03 | –
48 | O=c1cc(-c2ccc3c(c2)OCO3)oc2c(Cl)cc(Cl)cc12 | < 4.00 | 4.24 | –
49 | S=C(N/N=C/c1cccc2ccccc12)Nc1c(Cl)cccc1Cl | < 3.70 | 3.99 | –
50 | CC1C2CC(C/C2=N/O)C1(C)C (stereo not given) | < 2.83 | 3.36 | –
51 | Cc1ccc2cc([N+](=O)[O-])c3ccc(C)nc3c2n1.Cc1ccc2cc([N+](=O)[O-])c3ccc(C)nc3c2n1.O=C1OC(C(O)C[O-])C(O)=C1O.[Cu+] | < 4.90 | 5.74 | –
52 | CCOC(=O)C1C(=O)CC(O)(OCC)C(C(=O)OCC)C1c1ccc(OC)cc1 (stereo not given) | < 3.70 | < 3.70 | –
53 | O=C1OCC2=C1C(c1ccc3c(c1)OCO3)c1cc3c(cc1O2)OCO3 (stereo not given) | < 3.70 | 5.78 | –
54 | C[C@]12CC[C@H](OC(=O)CCC(=O)O)CC1=CC[C@@H]1C2CC[C@@]2(C)C1CC[C@@H]2c1nc(-c2ccccc2)cs1 (stereo not given in full) | < 4.33 | 4.76 | –
55 | NC1=NN(c2ccccc2)C(=O)C1C(=O)C(=O)Nc1ccccc1 (stereo not given) | – | – | inactive
56 | O=c1c2ccccc2oc2nccnc12 | – | – | inactive
57 | CCCCCCCN1C(=O)C(O)(c2ccc(C3(O)C(=O)N(CCCCCCC)c4ccccc43)s2)c2ccccc21 (stereo not given) | < 3.70 | 4.95 | –
58 | COc1cc(/C=C2\C(=O)N(Cc3ccccc3)C(c3ccccc3)S2(=O)=O)cc(OC)c1OC (stereo not given) | < 4.70 | 5.48 | –
59 | Oc1cc(Br)cc2cc(Cl)cnc12 | < 3.70 | 5.99 | –
60 | Oc1[nH]c2ccccc2c1N=NC1=NCCCCN1 | < 3.70 | < 3.70 | –
61 | COc1cccc2c1OC(=O)C(S(=O)(=O)c1ccccc1)C2 (stereo not given) | < 3.25 | < 3.25 | –
62 | COc1cc2nncc(SCc3ccc(Cl)c(Cl)c3)c2cc1OC | < 4.40 | 5.34 | –
63 | O=[N+]([O-])c1ccccc1C=NC12CC3CC(CC(C3)C1)C2 | < 3.94 | < 3.94 | –

Row | Structure (SMILES) | pEC50 | pIC50 | outcome
64 | c1ncc(C23C4C5C6C4C2C6C53)[nH]1 (stereo not given) | < 3.70 | 3.81 | –
65 | CCOC(=O)C1C(c2ccc(OC)cc2)c2c([nH][nH]c2=O)CC1(O)OCC (stereo not given) | – | – | inactive
66 | Cc1nc(C)c(N2CCN(Cc3ccccc3)CC2)c(=O)[nH]1 | < 3.70 | < 3.70 | –
67 | CCN1C(=O)CCCCC(=O)Nc2ccccc2-c2ccccc21 | – | – | inactive
68 | FC(F)(Sc1ccccn1)c1nc2ccccc2o1 | 4.83 | 4.05 | –
69 | NS(=O)(=O)c1nnc(NC(=O)/C=C/C(=O)O)s1 | < 3.70 | < 3.70 | –
70 | CC1c2c(Cl)nc3ccccc3c2Oc2c1c(Cl)nc1ccccc21 | < 4.85 | < 4.85 | –
71 | CN=c1ss/c(=N\C(=S)N(C)C)n1C1CCCCC1 | – | – | inactive
72 | C[S+](C)CC(=O)c1ccc2c(c1)Sc1ccccc1O2 | < 4.00 | 5.69 | –
73 | CC1=NN(C(=O)Cc2ccccc2)C(=O)/C1=C\c1ccccc1O | < 4.65 | < 4.65 | –
74 | CC(C)(C)OC(=O)NCCCCC(N)NC(=O)c1ccccc1 (stereo not given) | < 3.70 | < 3.70 | –
75 | Cc1cc(Cl)ccc1NC(=O)/C(Cc1nc2ccc(C(=O)c3ccccc3)cc2[nH]c1=O)=N/NC(=O)c1ccncc1 | < 3.65 | 4.12 | –
76 | C[N+](C)(Cc1ccco1)c1ccccc1 | < 5.50 | < 5.50 | –
77 | COc1cc(OC)c(OC)cc1/C=C/c1cc[n+](C)c2ccccc12 | < 3.70 | 5.12 | –
78 | CCCCCCCCCCCCCCCC[N+](C)(C)CCCS(=O)(=O)[O-] | – | – | inactive
79 | CN(C)C1C(=O)C(C(=O)NCNCCCO)=C(O)C2(O)C(=O)C3=C(O)c4c(O)cccc4C(C)(O)C3CC12 (stereo not given) | < 3.69 | < 4.00 | –
80 | CC1CC(=O)C2CC(CO)=CCCC2C1(C)CC/C(=C/CO)CO (stereo not given) | – | – | inactive
81 | COc1cccc2c1C(=O)c1c(O)c3c(c(O)c1C2=O)C[C@@](O)(C(=O)CO)C[C@@H]3OC1CC(N(C)C)C(O)C(C)O1 (stereo not given in full) | < 6.70 | 7.20 | –
82 | O=C(NC12CC3CC(CC(C3)C1)C2)C(=O)c1c[nH]c2ccc(Br)cc12 | < 3.70 | 4.59 | –
83 | COC(=O)c1nsc(OC)c1Cl | < 3.70 | < 3.70 | –
